Assay results from publication PMC10571957, “αV-Integrin-Dependent Inhibition of Glioblastoma Cell Migration, Invasion and Vasculogenic Mimicry by the uPAcyclin Decapeptide” (Cancers, 2023).

Experiments:
[1] = test system: U138-MG cells (αV integrin); test: FITC-uPAcyclin receptor binding/competition, U138-MG; parameters: species or system human; settings: unlabeled uPAcyclin vs FITC-uPAcyclin, 4 °C
Procedure: The U87-MG, U251-MG, and U138-MG cell lines were harvested and acid-treated, as described. Then, 2 × 10^6 cells/sample were exposed for 30 min at 4 °C to uPAcyclin or S-uPAcyclin at the indicated concentrations, or with the following antibodies: VNR147 monoclonal anti-αV integrin (Chemicon Int. Inc., Temecula, CA, USA), polyclonal anti-αV (Millipore, Burlington, MA, USA), monoclonal anti-α2 (Chemicon Int. Inc., Temecula, CA, USA), polyclonal anti-actin (Sigma-Aldrich, St. Louis, MO, USA), monoclonal anti-GAPDH (Abcam, Cambridge, UK), and purified vitronectin (VN, Corning, Glendale, AZ, USA). The cells were subsequently incubated with 50 nM FITC-uPAcyclin for 2 h at 4 °C, as described. At the end of incubation, the cells were washed and the cell surface-associated fluorescence was determined using a fluorimeter (VICTOR^TM X3-PerkinElmer, Waltham, MA, USA). All binding assays were performed three times, with duplicate samples, and analyzed as described in Section 2.11.
Figure 2 αV expression of U87-MG, U251-MG, and U138-MG GBM cells and specific binding of FITC-uPAcyclin. […] At the end of the incubation, the unbound material was washed and cell-associated FITC-uPAcyclin was quantitated by a fluorimeter. The net value of cell-surface-associated fluorescence, corresponding to the specific binding, is shown. […]

breast cancer cell lines = settings: ref Belli et al. [25]; cited from earlier work
U87-MG cells = test: Cell viability/proliferation (Trypan blue, MTT), U87-MG; type: cell-based, human; settings: 1 nM or 100 nM, 72–96 h
Procedure: Cell viability was tested in DMEM/10% FBS, in the presence of 1 nM or 100 nM uPAcyclin, either by Trypan blue exclusion or by thiazolyl blue tetrazolium bromide (MTT) assays, as specified in the figure legends. For the Trypan blue assay, 4 × 10^4 U87-MG, U251-MG, U138-MG, and C6 cells/sample were grown in 12-well plates, and followed for 24, 48 and 72 h. As a negative control, the cells were grown in a serum-free medium. Then, the cells were detached, stained with a 0.2% (w/v) Trypan blue solution, counted using a Burker chamber (T0 = 100%), and reported as number of viable cells/total.
For the MTT assay, 5 × 10^3 U87-MG and C6 cells/well were grown in 96-well plates for 24 h and tested as previously described. Briefly, MTT (Invitrogen-Life Technologies, Eugene, OR, USA) 5 mg/mL in a PBS solution was added to wells at a 10% final concentration, and incubated for 3 h at 37 °C, followed by the addition of stop solution (100 µL of DMSO/well) for 1 h at room temperature. Then, the optical densities were measured at 495 nm using the Microplate Reader (Synergy HT, Bio-Tek, Winoosky, VT, USA). The cell viability rate was calculated as a percentage by reporting the mean absorbance of treated groups to control groups, as follows: Cell viability rate (%) = (Atreated group/Acontrol group) × 100.

## Ac-K^1P[ESPPEELK^10]-NH2 (sidechain bridge or staple) [uPAcyclin]
[1]
  Kdapp: low nanomolar range
Breast cancer cell lines
  migration and invasion inhibition: potent inhibitor of migration and invasion of breast cancer cell lines
U87-MG cells
  proliferation/viability: unaffected by uPAcyclin, regardless of the concentration employed
